Entries after “also recorded” stand apart in the source; their conditions may differ.
Tests used:
Format in all cases: in vivo
[1] = system: corn plants; assay: Root structure of DFU-treated vs untreated corn plants (FIG. 1); settings: treated vs untreated corn plant
From the text: FIG. 1 is a photograph illustrating root structure of two corn plants, one treated (on right) with DFU, the other untreated (on left); It has been discovered that application of DFU to growing crop plants results in a large increase in the functional capacity of the crop plant root system because of selective root tissue synthesis and development of fine small feeder roots that operate to take up water and minerals from the soil environment. Treatment of crop plant tissue described herein includes exogenous treatment of the crop plants with a DFU solution at a rate of between 0.1 to 10 pints/acre over the crop growth stages or as a preferred rate of 0.5 to 1.5 pints per acre. Preferably, the concentration of the DFU which is applied at the above rates is from stock solutions of 0.001 Molar to 1.0 Molar with a preferred Molarity of 0.001 Molar to 0.05 Molar. FIG. 1 is a photograph of two plants: the plant on the left had no treatment with DFU; the plant on the right hand side was treated with DFU. […] The treated plant on the right hand side of FIG. 1 is in contrast to the thicker deeper roots of the plant on the left hand side which has fewer “root tips” for water and nutrient uptake from the soil. The DFU treated plant on the right has smaller feeder roots for water, mineral, and nutrient uptake from the roots to the shoots.

[2] = system: corn plant; assay: Soil moisture around feeder roots of corn plants (FIGS. 2, 3); settings: DFU-treated (FIG. 3) vs untreated (FIG. 2) corn plant
From the text: FIG. 2 is a photograph of a root structure showing dry soil around the roots of a corn plant that has not been treated with DFU; FIG. 3 is a photograph of a root structure showing moist soil around the roots of a corn plant (grown under the same conditions as that of FIG. 2) treated with DFU; It has also been discovered that applying DFU to crop plants causes enhancement of crop plant cellular water and soil moisture around the feeder roots. Compare the feeder root system of FIG. 2 of a plant that has had no DFU applied to it with the feeder root system of FIG. 3 of a plant that has DFU applied to it.

[3] = system: corn seedlings; assay: Guttation on corn seedling leaves (FIG. 4); settings: as a function of DFU amounts
From the text: FIG. 4 illustrates the results of increased guttation on seedling leaves as a function of DFU amounts.

[4] = system: corn plants; assay: Survival of corn plants in a flooded field (FIGS. 5-13); settings: corn field flooded by excessive rain; in furrow DFU
From the text: The method of applying DFU to crop plants, which has been covered by natural rain or other types of flooding is a distinctive enhanced feature of DFU treatment of crop plants to ameliorate damaging effects of field soil excessive moisture such as flooding. The most efficacious method of DFU treatment for this feature is that of an “in furrow” application into the open soil furrow at time of crop seed sowing with a spray of DFU at a dose of one to one and a half pints per acre over the seed and unto the soil of the open furrow before closure of the open furrow and application of pressure to the closed furrow for optimal soil contact with the seed. […] DFU is preferably sprayed at a dose of 1 pint per acre to 1½ pints per acre over the seed and onto the soil of the open furrow before closure of the open furrow and application of pressure to the closed furrow for optional soil contact with the seed. FIG. 5 is a photograph of a corn field completely flooded by excessive rain. FIGS. 6 and 7 show corn plants treated with DFU after the excessive water has retreated somewhat. The corn plants are seen to be growing. […] FIG. 9 is a photograph of a corn field which has not been treated with DFU, but after flooding, has been almost completely killed because of the water. FIG. 10 is a close-up photo of corn that has been killed because of flooding. […]

[5] = system: corn plant; assay: Internodal stalk volume of corn plants (Table 1)
Description: It has also been discovered that DFU treatment of corn plants increases the inter-nodal volume of corn plants. Table 1 below confirms that discovery where intermodal stalk volumes of untreated corn crop plants was calculated to be 311.71 cc per plant whereas the inter-nodal stalk volumes of the DFU-treated corn plant was 355.47, an increase of 14% over the control plant.

[6] = system: corn seedlings; assay: Sealed barrel water use test with corn seedlings (FIG. 14)
Description: It has also been discovered that crops treated with DFU require less water for growing. See the results illustrated in FIG. 14. In two barrels that were sealed at the top, a precise amount of growing medium was added with appropriate fertilizer and a precise amount of water. […] Seven corn seedlings were germinated and grown in the growing medium in each of the barrels for a period of 37 days. At 37 days the fresh weight and dry weights of corn plants were determined. The graph on the right side of […] depicts the combined weight of the water and the plants growing out of the barrels. The graph on the left depicts the average amount of water needed to grow the treated vs the untreated corn, indicating a twenty eight percent savings with the DFU-treated plants contrasted to the untreated plants. The two barrels were constantly weighed electronically.

[7] = system: soybean plants; assay: Soybean yield after DFU seed treatment (Table 2)
From the text: As further evidence the increase in crop production as a result of DFU treatment see Table 2 below. Untreated soybean plant yields were 52.5 bushels per acre. The DFU treated soybean plants yielded 111 bushels per acre. This represents an increase in […] of 111 percent.

[8] = system: soybean; assay: Soybean yield with DFU and Quadris fungicide (Table 3)
From the text: Table 3 below illustrates the increased performance of herbicides and fungicides for crop plants by addition of DFU to the crops. Quadris™ fungicide (product of Syngenta Crop Protection, Inc.) was applied at the R1 stage of growth and gave a yield increase of 15 bushels per acre. DFU by itself increased soybean yields by 40 bushels per acre. DFU and Quadris applied together increased the yields by 52 bushels.

[9] = system: field corn cultivar DKC 66-96; assay: Field corn yield, nitrogen fertilizer use efficiency (Table 4)
From the text: A total of 180 lb of nitrogen fertilizer/acre, with ½ of nitrogen applied at V4 (forth leaf) and ½ at V7 (seventh leaf) as a side dress (3 inches to the side of the plant and 3 inches below the soil surface). The field corn cultivar DKC 66-96 was planted on Feb. 11, 2013 and harvested on Jul. 12, 2013.

[10] = system: field corn; assay: Field corn yield, foliar DFU at V4 along with Round-Up herbicide (Table 5); design: Yield rep1 / Yield rep2 / Yield rep3 / Yield rep4: unit not given here; settings: for Yield Bu/acre: control 209
From the text: Table 5 below illustrates the effect of foliar application of DFU applied at V4 (4th leaf stage of crop growth) at either the rate of ½ pt/acre along with the herbicide Round-Up™ herbicides on field corn. Both the control and the treatments also had 0.9 lb of ammonium sulfate applied along with the herbicide and di-formylurea (DFU). The field corn was planted in southern Texas on Mar. 3, 2012, at a population density of 35,000 plants per acre. […] The large difference was in the harvestable yields of the di-formyl urea treated plants over the control which received the herbicide only.

[11] = system: corn crop; assay: Corn crop yield with DFU combined with nitrogen fertilizer; settings: DFU combined with nitrogen fertilizer to the soil vs nitrogen fertilizer alone
From the text: Enhanced tissue development in DFU treated corn plants is illustrated by the experiment illustrated in FIG. 15.

[12] = soybean, seed treatment 2 oz DFU/cwt of seed
[13] = soybean yield, DFU 1 pt/acre, Quadris recommended rate
[14] = field corn, seed treat 2 oz/cwt, V4 ½ pt, V9 1 pt

## O=CNC(=O)NC=O [DFU, diformylurea]
[1]
  fine small feeder root system development: significantly greater fine small feeder root system development
[2]
  soil moisture around the root system: Much more moist soil
[3]
  guttation of water on plant leaves: increases guttation
[4]
  survival of plants in flooded field: prevents drowning of the plants; also recorded: survived the flood
[5]; Growth Stage V1
  Internodal Volume (cc): 33.49 cc
[5]; Growth Stage V2
  Internodal Volume (cc): 45.02 cc
[5]; Growth Stage V3
  Internodal Volume (cc): 55.76 cc
[5]; Growth Stage V4
  Internodal Volume (cc): 59.14 cc
[5]; Growth Stage V5
  Internodal Volume (cc): 54.34 cc
[5]; Growth Stage V6
  Internodal Volume (cc): 47.79 cc
[5]; Growth Stage V7
  Internodal Volume (cc): 35.02 cc
[5]; Growth Stage V8
  Internodal Volume (cc): 24.9 cc
[5]; calculated total, untreated 311.71
  inter-nodal stalk volumes per plant: 355.47 cc per plant
[5]; vs untreated corn plant
  increase of inter-nodal stalk volume over the control plant: 14%
[6]; 0.0015% solution of DFU, 37 days, vs untreated
  savings in average amount of water needed to grow corn: twenty eight
[6]; crop plants treated with DFU
  enhanced water use efficiency: up to 28%
[7]; soybean yield vs untreated 52.5 bushels per acre
  increase in water use efficiency: 111%
[7]; [12]
  Rep 1 Yield: 109
  Rep2 Yield: 112
  Rep3 Yield: 111
  Rep4 Yield: 112
[7]; soybean, seed treatment 2 oz DFU/cwt of seed, control 52.5
  Average Yield bu per acre: 111 bu per acre
[7]; untreated 52.5
  soybean plant yield: 111 bushels per acre
[8]; DFU @ 1 pt/acre, Quadris @ recommended rate at R1, control 55.0
  Soybean Yield Bu/acre: 95.1 Bu/acre
[8]; [13]
  Rep 1: 92.7
  Rep 2: 95.8
  Rep 3: 89.9
  Rep 4: 102
[8]; vs control
  soybean yield increase: 40 bushels per acre
[9]; [14]
  Rep 1 Yield: 175.5
  Rep2 Yield: 188
  Rep3 Yield: 178.7
  Rep4 Yield: 185.1
[9]; field corn, seed treat 2 oz/cwt, V4 ½ pt, V9 1 pt, 180 lb nitrogen fertilizer/acre, control 112.6
  Average Yield bu per acre: 180.6 bu per acre
[9]; harvested yield vs untreated control
  increase in efficiency of use of the available nitrogen mineral fertilizer: 60.7%
[10]; V4 foliar 1 pt/acre
  Yield % increase: 21.5%
  Yield increase bu/acre vs control: 45 bu/acre
  Yield rep1: 246
  Yield rep2: 251
  Yield rep3: 256
  Yield rep4: 264
[10]; V4 foliar 1 pt/acre with Round-Up and ammonium sulfate
  Yield Bu/acre: 254 Bu/acre
[10]; V4 foliar ½ pt/acre
  Yield % increase: 13.9%
  Yield increase bu/acre vs control: 29 bu/acre
  Yield rep1: 227
  Yield rep2: 232
  Yield rep3: 224
  Yield rep4: 237
[10]; V4 foliar ½ pt/acre with Round-Up and ammonium sulfate
  Yield Bu/acre: 230 Bu/acre
[11]
  yield of the corn crop: significantly enhances yield

From patent US20150150261A1, “METHODS FOR APPLYING DIFORMYLUREA TO CROPS FOR GREATER PLANT PRODUCTIVITY” (Stoller Enterprises, Inc., priority 2013, published 2015)
